Converted amounts (≈) assume the structure as drawn.
The molecules below were run on Fusarium graminearum (assay: Fungicidal activity against Fusarium graminearum 2021 assessed as mycelial growth inhibition after 3 days). Settings: Fusarium graminearum, 2021, 72 h.
Assay type: functional, organism-based

Which EC50 does the source give for CCCCNC(=O)n1c(NC(=O)OC)nc2ccccc21 [BENOMYL] here?
The EC50 was 0.61 µg/mL (≈ 2.1 µM).

Which EC50 does the source give for c1ccc2[nH]c(-c3cscn3)nc2c1 [THIABENDAZOLE] here?
Its EC50 is 1.13 µg/mL (≈ 5.61 µM).

For COC(=O)NC(=S)Nc1ccccc1NC(=S)NC(=O)OC [THIOPHANATE METHYL], which EC50 is on record?
Its EC50 is 11 µg/mL (≈ 32.2 µM).

Source: ChEMBL document CHEMBL3045960 (Pest Manag Sci, 2011)
